Results reported in PubChem BioAssay (NCI).
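Method: 48-hour compound exposure of cells in 96-well plates, five concentrations, linear interpolation of endpoints. GI50 = concentration required for 50% inhibition of growth. At the TGI there is no net growth.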

Tests used:
Assay in all cases: NCI tumour cell line growth inhibition, 48 h
[1] = test system: HT29 colon
[2] = test system: HCC-2998 colon
[3] = test system: HOP-62 NSCLC
[4] = test system: COLO 205 colon
[5] = test system: HCT-116 colon
[6] = test system: ACHN renal
[7] = test system: SK-MEL-28 melanoma
[8] = test system: LOX IMVI melanoma
[9] = test system: SF-268 CNS
[10] = test system: M14 melanoma
[11] = test system: NCI-H226 lung
[12] = test system: KM12 colon
[13] = test system: NCI-H522 lung
[14] = test system: SK-OV-3 ovarian
[15] = test system: SNB-78 CNS
[16] = test system: SF-539 CNS
[17] = test system: OVCAR-4 ovarian
[18] = test system: U251 CNS
[19] = test system: NCI-H23 lung
[20] = test system: 786-0 renal
[21] = test system: UO-31 renal
[22] = test system: HOP-92 NSCLC
[23] = test system: CCRF-CEM leukemia
[24] = test system: EKVX NSCLC
[25] = test system: DLD-1 colon
[26] = test system: RPMI-8226 leukemia
[27] = test system: HCT-15 colon
[28] = test system: NCI-H460 lung
[29] = test system: MALME-3M melanoma
[30] = test system: LXFL 529 NSCLC
[31] = test system: OVCAR-3 ovarian
[32] = test system: SR leukemia
[33] = test system: TK-10 renal
[34] = test system: A549 NSCLC
[35] = test system: UACC-257 melanoma
[36] = test system: CAKI-1 renal
[37] = test system: SF-295 CNS
[38] = test system: M19-MEL melanoma
[39] = test system: SK-MEL-5 melanoma
[40] = test system: HL-60(TB) leukemia
[41] = test system: SN12C renal
[42] = test system: OVCAR-8 ovarian
[43] = test system: SW-620 colon
[44] = test system: SK-MEL-2 melanoma
[45] = test system: SNB-75 CNS
[46] = test system: K-562 leukemia
[47] = test system: IGROV1 ovarian
[48] = test system: XF 498 CNS
[49] = test system: KM20L2 colon
[50] = test system: SNB-19 CNS
[51] = test system: OVCAR-5 ovarian
[52] = test system: UACC-62 melanoma
[53] = test system: MOLT-4 leukemia
[54] = test system: A498 renal
[55] = test system: DMS 114 small cell lung
[56] = test system: RXF 393 renal
[57] = test system: NCI/ADR-RES ovarian
[58] = test system: DU-145 prostate
[59] = test system: MDA-MB-231 breast
[60] = test system: PC-3 prostate
[61] = test system: HS 578T breast
[62] = test system: MCF7 breast
[63] = test system: MDA-N
[64] = test system: BT-549 breast
[65] = test system: T-47D breast
[66] = test system: MDA-MB-435

`Cc1nc(N)nc(N)c1CCCCc1ccc(N)cc1` gave a TGI [1] of 15.1 µM, a TGI [2] of 15.7 µM and a TGI [3] of 18.2 µM. It also gave a TGI [4] of 28 µM, a TGI [5] of 13.4 µM and a TGI [6] of 59.2 µM. It also gave a TGI [7] of 23.5 µM, a TGI [8] of 14.8 µM and a TGI [9] of 17.3 µM. For the same compound, the TGI [10] was 18.4 µM, the TGI [11] was 56.1 µM and the TGI [12] was 21.7 µM. It also gave a TGI [13] of 16 µM, a TGI [14] of 16.6 µM and a TGI [15] of 27.2 µM. For the same compound, the TGI [16] was 21.7 µM, the TGI [17] was 25.8 µM and the TGI [18] was 17.6 µM. The TGI [19] was 15.8 µM, the TGI [20] was 18.9 µM and the TGI [21] was > 100 µM. It also gave a TGI [22] of 18 µM, a TGI [23] of 22.5 µM and a TGI [24] of 27.3 µM. It also gave a TGI [25] of 31.6 µM, a TGI [26] of 26.5 µM and a TGI [27] of 18.4 µM. The TGI [28] was 13.6 µM, the TGI [29] was 18.2 µM and the TGI [30] was 20.4 µM. It also gave a TGI [31] of 20.9 µM, a TGI [32] of 24.7 µM and a TGI [33] of 28.8 µM. The TGI [34] was 16.8 µM, the TGI [35] was 18.5 µM and the TGI [36] was 39.5 µM. For the same compound, the TGI [37] was 14.2 µM, the TGI [38] was 25.5 µM and the TGI [39] was 16.5 µM. The TGI [40] was 19.4 µM, the TGI [41] was 16.9 µM and the TGI [42] was 20.6 µM. The TGI [43] was 19.8 µM, the TGI [44] was 21.3 µM and the TGI [45] was 29.3 µM. It also gave a TGI [46] of 16.4 µM, a TGI [47] of 21.2 µM and a TGI [48] of 23.6 µM. It also gave a TGI [49] of 18.2 µM, a TGI [50] of 20.4 µM and a TGI [51] of 23 µM. It also gave a TGI [52] of 14.1 µM and a TGI [53] of 35.2 µM.

With `O=S(O)CCCCCSSc1ccccc1` the TGI [1] was > 100 µM, the TGI [2] was > 100 µM and the TGI [3] was > 100 µM. For the same compound, the TGI [5] was 70.2 µM, the TGI [6] was > 100 µM and the TGI [7] was > 100 µM. The TGI [8] was 38.4 µM, the TGI [9] was 85.5 µM and the TGI [10] was > 100 µM. The TGI [12] was > 100 µM, the TGI [13] was 42 µM and the TGI [14] was > 100 µM. The TGI [15] was > 100 µM, the TGI [16] was 62.6 µM and the TGI [17] was > 100 µM. The TGI [18] was 94.1 µM, the TGI [19] was > 100 µM and the TGI [21] was > 100 µM. For the same compound, the TGI [23] was 50.3 µM, the TGI [24] was > 100 µM and the TGI [25] was > 100 µM. For the same compound, the TGI [26] was 56.4 µM, the TGI [28] was > 100 µM and the TGI [29] was > 100 µM. For the same compound, the TGI [30] was 37.9 µM, the TGI [31] was > 100 µM and the TGI [32] was 35 µM. The TGI [54] was > 100 µM, the TGI [33] was > 100 µM and the TGI [35] was > 100 µM. For the same compound, the TGI [38] was > 100 µM, the TGI [40] was 88.1 µM and the TGI [55] was 66.6 µM. For the same compound, the TGI [41] was > 100 µM, the TGI [44] was 53.3 µM and the TGI [45] was 99.5 µM. For the same compound, the TGI [46] was > 100 µM, the TGI [48] was 72.3 µM and the TGI [50] was > 100 µM. The TGI [51] was > 100 µM, the TGI [56] was 89.2 µM and the TGI [52] was 79.9 µM. The TGI [53] was 34.2 µM.

`COC1(CC[C@@H](C)COC2OC(CO)C(O)C(O)C2O)O[C@H]2C[C@H]3[C@@H]4CC=C5C[C@@H](OC6OC(CO)C(OC7OC(C)C(O)C(O)C7O)C(O)C6OC6OC(C)C(O)C(O)C6O)CC[C@]5(C)[C@H]4CC[C@]3(C)[C@H]2[C@@H]1C` (some centres not stated) gave a GI50 [1] of 1.89 µM, a TGI [1] of 4.3 µM and a GI50 [2] of 2.97 µM. The TGI [2] was 8.5 µM, the TGI [3] was 4.04 µM and the GI50 [4] was 2.99 µM. For the same compound, the TGI [4] was 19.2 µM, the GI50 [5] was 1.96 µM and the TGI [5] was 10.4 µM. The GI50 [6] was 6.24 µM, the TGI [6] was 13.9 µM and the GI50 [7] was 2.26 µM. It also gave a TGI [7] of 5.53 µM, a GI50 [8] of 0.645 µM and a TGI [8] of 1.99 µM. It also gave a GI50 [9] of 2.38 µM, a TGI [9] of 6.76 µM and a GI50 [10] of 1.58 µM. It also gave a TGI [10] of 8.42 µM, a TGI [11] of 15.3 µM and a GI50 [12] of 1.01 µM. It also gave a TGI [12] of 2.65 µM, a TGI [13] of 4.23 µM and a TGI [14] of 3.09 µM. The GI50 [16] was 1.22 µM, the TGI [16] was 2.86 µM and the GI50 [17] was 2.44 µM. It also gave a TGI [17] of 6.72 µM, a GI50 [18] of 1.61 µM and a TGI [18] of 4.31 µM. It also gave a GI50 [19] of 2.95 µM, a TGI [19] of 9.14 µM and a GI50 [57] of 2.59 µM. It also gave a TGI [57] of 6.19 µM, a TGI [20] of 4.02 µM and a GI50 [21] of 1.69 µM. For the same compound, the TGI [21] was 5.2 µM, the GI50 [22] was 2.32 µM and the TGI [22] was 7.97 µM. It also gave a GI50 [23] of 7.6 µM, a TGI [23] of 20.2 µM and a GI50 [24] of 10 µM. It also gave a TGI [24] of 33.3 µM, a GI50 [26] of 3.83 µM and a TGI [26] of 13.7 µM. For the same compound, the GI50 [27] was 1.72 µM, the TGI [27] was 3.66 µM and the GI50 [58] was 1.92 µM. The TGI [58] was 4.17 µM, the GI50 [28] was 1.62 µM and the TGI [28] was 5.43 µM. For the same compound, the GI50 [29] was 1.96 µM, the TGI [29] was 5.09 µM and the GI50 [31] was 2.04 µM. For the same compound, the TGI [31] was 6.64 µM, the GI50 [32] was 2.96 µM and the GI50 [54] was 3.86 µM. For the same compound, the TGI [54] was 9.76 µM, the TGI [59] was 6.66 µM and the GI50 [33] was 8.04 µM. For the same compound, the TGI [33] was 23.1 µM, the TGI [60] was 9.58 µM and the GI50 [61] was 1.18 µM. It also gave a TGI [61] of 3.99 µM, a GI50 [34] of 1.55 µM and a TGI [34] of 4.22 µM. It also gave a GI50 [35] of 2.56 µM, a TGI [35] of 8.38 µM and a GI50 [36] of 1.25 µM. For the same compound, the TGI [36] was 2.61 µM, the GI50 [37] was 2.02 µM and the TGI [37] was 5.22 µM. It also gave a GI50 [62] of 3.74 µM, a TGI [62] of 12.9 µM and a GI50 [39] of 3.51 µM. It also gave a TGI [39] of 12.2 µM, a GI50 [40] of 3.47 µM and a TGI [40] of 13.4 µM. It also gave a TGI [63] of 7.43 µM, a GI50 [64] of 2.58 µM and a TGI [64] of 6.81 µM. It also gave a GI50 [41] of 2.87 µM, a GI50 [42] of 2.39 µM and a TGI [42] of 8.47 µM. It also gave a GI50 [43] of 0.795 µM, a TGI [43] of 2.21 µM and a GI50 [44] of 3.26 µM. It also gave a TGI [44] of 8.5 µM, a TGI [45] of 3.37 µM and a GI50 [46] of 5.12 µM. The TGI [46] was 16 µM, the GI50 [47] was 2.5 µM and the TGI [47] was 7.16 µM. It also gave a GI50 [50] of 2.46 µM, a TGI [50] of 6.54 µM and a GI50 [51] of 1.91 µM. It also gave a TGI [51] of 10.5 µM, a GI50 [65] of 4.08 µM and a TGI [65] of 10.9 µM. For the same compound, the GI50 [56] was 1.92 µM, the TGI [56] was 5.45 µM and the GI50 [52] was 2.31 µM. It also gave a TGI [52] of 16 µM, a TGI [66] of 4.18 µM and a GI50 [53] of 5.36 µM. The TGI [53] was > 26.1 µM.
